1 compound from patent US20110294828A1, “PROCESS FOR PREPARING A POLYMORPH OF THE CHOLINE SALT OF A PYRIMIDIN-5-YL ACETIC ACID DERIVATIVE” (BOEHRINGER INGELHEIM INTERNATIONAL GMBH, priority 2009, published 2011) can be followed below.

A short description of data set [1]: Dynamic vapor sorption/desorption (DVS). The format is physicochemical. The conditions noted are these: up to 75% relative humidity at 25° C. The protocol:
Vapor sorption/desorption was carried out using Surface Measurement Systems DVS-HT. Samples were placed into a foil insert placed on a sample pan. […] The equilibrium point of each step was reached when 0.002% of weight change was reached.

Data set [2] in a line: Particle size distribution (Sympatec HELOS, dry powder dispersion). The format is physicochemical. Also noted: particle size D90: dose or concentration left out as unconfirmed. As to conditions: for Particle size distribution (PSD) % <10 μM / Particle size distribution (PSD) % <50 μM / particle size D90: crystalline product as isolated, no milling; for particle size D90: the values are: particle size D90. As for the experimental part:
Determination of particle size distribution was carried out using a Sympatec HELOS System H1588 with a RODOS/M Dry Powder Dispersion System.

A further data set addresses T1, CRTH2 (Homo sapiens, UniProt Q9Y5Y4).
T1 sequence (Q9Y5Y4 1-395): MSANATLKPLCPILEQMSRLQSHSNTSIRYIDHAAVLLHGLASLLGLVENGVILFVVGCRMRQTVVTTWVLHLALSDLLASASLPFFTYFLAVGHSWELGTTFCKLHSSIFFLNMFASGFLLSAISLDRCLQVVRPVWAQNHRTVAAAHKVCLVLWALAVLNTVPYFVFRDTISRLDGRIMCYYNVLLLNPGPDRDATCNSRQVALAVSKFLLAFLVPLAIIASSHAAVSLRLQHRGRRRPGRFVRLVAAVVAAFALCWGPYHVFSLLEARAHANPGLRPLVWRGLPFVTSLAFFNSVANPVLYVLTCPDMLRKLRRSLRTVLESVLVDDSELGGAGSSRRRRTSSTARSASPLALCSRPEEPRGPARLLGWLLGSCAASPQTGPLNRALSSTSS
The data set is described as follows: CRTH2 antagonistic activity (statement only, no method given).

Where a name gives a salt, the structure may show the parent alone.

In the case of `CN(C)c1nc(Cc2ccc(NC(=O)c3ccc(C(F)(F)F)cc3)cc2)nc(N(C)C)c1CC(=O)O` [choline salt of [4,6-bis(dimethylamino)-2-(4-{[4-(trifluoromethyl)benzoyl]amino}benzyl)pyrimidin-5-yl]acetic acid], the “hygroscopicity (DVS isotherm, FIG. 3)” value in data set [1] is recorded as “non-hygroscopic”. Besides, the “Particle size distribution (PSD) % <10 μM” value in data set [2] (listed as Comp. Ex. 2) is given as 11.57; in data set [2] (listed as Comp. Ex. 3) it was 6.87; in data set [2] (listed as Comp. Ex. 4), 3.01; in data set [2] (listed as Ex. 1), 5.13. The “Particle size distribution (PSD) % <50 μM” value in data set [2] (listed as Comp. Ex. 2) is reported as 60.13; in data set [2] (listed as Comp. Ex. 3), 57.62; in data set [2] (listed as Comp. Ex. 4) it was 13.62; in data set [2] (listed as Ex. 1), 16.67. Further, the particle size D90 in data set [2] (listed as Comp. Ex. 2) came out at 120 µm; in data set [2] (listed as Comp. Ex. 3), 181 µm; in data set [2] (listed as Comp. Ex. 4) it was 38 µm; in data set [2] (listed as Ex. 1) it was 35.5 µm. Also, in data set [2] (seeding step with seeding particles of which 90% have a diameter of less than 50 μm), the “diameter of 90% of the choline salt particles” value is reported as “less than 100 μm”. Besides, at CRTH2, the CRTH2 antagonistic activity entry was “excellent”.
